Measured values published in patent publication US9102648B1, “Bioavailable diacylhydrazine ligands for modulating the expression of exogenous genes via an ecdysone receptor complex” (Intrexon Corporation, priority 2003, dated 2015).
Where two headings read alike, the source gives them in different places.

What was measured:
[1] = molecular target: T1, Bombyx mori EcR (VP16 fusion, CVBE switch construct) (Bombyx mori, UniProt P49881); assay: Z3 Assay (HEK-293 cells with CVBE and 6XEcRE LacZ, β-galactosidase reporter); conditions: for Fold Induction, Z3 Assay, 3.3 uM: 3.3 uM ligand; for Fold Induction, Z3 Assay, 3.3 uM / Fold Induction, Z3 Assay, 33 uM: ligand treated / DMSO treated cells; for Fold Induction, Z3 Assay, 33 uM: 33 uM ligand; for Z3 assay Rel Max FI: maximum fold induction at any concentration relative to that of GS-E ligand
T1 sequence (P49881 86-606): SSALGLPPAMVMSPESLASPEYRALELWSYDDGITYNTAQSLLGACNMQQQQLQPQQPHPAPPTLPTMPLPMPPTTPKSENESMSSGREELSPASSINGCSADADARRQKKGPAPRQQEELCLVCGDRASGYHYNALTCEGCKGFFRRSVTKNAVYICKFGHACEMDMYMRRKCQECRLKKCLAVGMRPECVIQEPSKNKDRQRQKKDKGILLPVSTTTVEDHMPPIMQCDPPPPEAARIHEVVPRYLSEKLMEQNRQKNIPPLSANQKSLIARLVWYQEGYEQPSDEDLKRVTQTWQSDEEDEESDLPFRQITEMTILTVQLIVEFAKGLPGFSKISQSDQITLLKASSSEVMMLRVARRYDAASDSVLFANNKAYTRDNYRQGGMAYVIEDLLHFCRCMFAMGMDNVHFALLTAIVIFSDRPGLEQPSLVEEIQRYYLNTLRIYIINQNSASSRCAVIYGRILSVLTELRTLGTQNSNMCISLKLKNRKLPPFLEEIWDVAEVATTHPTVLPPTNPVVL
T1 sequence (P19793 1-462 partner): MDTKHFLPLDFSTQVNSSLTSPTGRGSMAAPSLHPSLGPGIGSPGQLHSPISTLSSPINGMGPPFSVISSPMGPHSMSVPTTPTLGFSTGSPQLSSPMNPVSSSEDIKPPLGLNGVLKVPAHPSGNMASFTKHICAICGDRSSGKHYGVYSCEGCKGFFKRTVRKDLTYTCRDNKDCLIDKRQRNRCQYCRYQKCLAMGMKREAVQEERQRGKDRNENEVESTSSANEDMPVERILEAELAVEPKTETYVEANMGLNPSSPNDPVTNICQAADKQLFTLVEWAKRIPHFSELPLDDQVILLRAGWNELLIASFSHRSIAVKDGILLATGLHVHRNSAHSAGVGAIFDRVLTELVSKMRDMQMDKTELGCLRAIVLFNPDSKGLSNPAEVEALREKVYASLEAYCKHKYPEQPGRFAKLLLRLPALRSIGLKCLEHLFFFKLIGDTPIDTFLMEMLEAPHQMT

[2] = molecular target: GAL4 DBD-CfEcR(DEF)/VP16AD-MmRXRE (Choristoneura fumiferana, UniProt O77240); assay: 13B3 Assay (CHO stable cell line, luciferase reporter); conditions: for Fold Induction, 13B3 Assay, 3.3 uM: 3.3 uM ligand; for Fold Induction, 13B3 Assay, 3.3 uM / Fold Induction, 13B3 Assay, 33 uM: RLU ligand treated / RLU DMSO treated cells; for Fold Induction, 13B3 Assay, 33 uM: 33 uM ligand; for 13B3 assay Rel Max FI: maximum fold induction at any concentration relative to that of GS-E ligand, CHO 13B3 cells
Outline: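 CHO 13B3 clone stably expressing GAL4 DBD–CfEcR(DEF) and VP16AD–MmRXR(DE) with GAL4 RE–luciferase reporter; cells plated 24 h at 37 °C, then treated with ligands (DMSO stocks diluted 300-fold), 8 concentrations 33–0.01 μM.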

[3] = read-out: Z3 assay EC50, HEK-293 Z3 cells, β-galactosidase reporter, average of two wells
[4] = read-out: 13B3 EC50, CHO 13B3 stable cell line, luciferase reporter, 48 h, average of two wells

| SMILES | Fold Induction, Z3 Assay, 3.3 uM ([1]; average of two wells) | Fold Induction, Z3 Assay, 33 uM ([1]; average of two wells) | Z3 assay Rel Max FI ([1]; HEK-293 Z3 cells) | EC50 [1, 3] | Fold Induction, 13B3 Assay, 3.3 uM ([2]; average of two wells) | Fold Induction, 13B3 Assay, 33 uM ([2]; average of two wells) | 13B3 assay Rel Max FI [2] | EC50 [2, 4] | EC50 [1] | fold induction at 3.3 µM ([1]; HEK293, read-out: Fold Induction, Z3 Assay, 3.3 uM) | fold induction at 33 µM ([1]; HEK293, read-out: Fold Induction, Z3 Assay, 33 uM) | EC50 [2] | fold induction at 3.3 µM ([2]; read-out: Fold Induction, 13B3 Assay, 3.3 uM) |
| --- | --- | --- | --- | --- | --- | --- | --- | --- | --- | --- | --- | --- | --- |
| Cc1ccc(F)c(C(=O)N(NC(=O)c2ccc3c(c2C)CCCO3)C(C)(C)C)c1 [RG-115499] | 173 | 641 | 0.954 | 0.17 µM | 1182 | 731 | 0.489 | 0.328 µM | – | – | – | – | – |
| CCc1c(C(=O)NN(C(=O)c2ccccc2OC)C(C)(C)C)ccc2c1OCCO2 [RG-115244] | 283 | 816 | 0.959 | 0.085 µM | 2404 | 573 | 0.663 | 0.369 µM | – | – | – | – | – |
| COc1cccc(C(=O)NN(C(=O)c2cc(C)ccc2[N+](=O)[O-])C(C)(C)C)c1C [RG-100569] | 754 | 457 | 0.835 | 0.098 µM | 1710 | 329 | 0.773 | 0.185 µM | – | – | – | – | – |
| Cc1c(C(=O)NN(C(=O)c2cc(F)c(F)cc2F)C(C)(C)C)ccc2c1CCCO2 [RG-115229] | – | 1032 | – | 0.427 µM | 599 | 709 | 0.418 | 2.25 µM | – | – | – | – | – |
| CCc1c(OC)cccc1C(=O)NN(C(=O)c1cc(C)cc(C)c1)C(C)(C)C=NNC(N)=O [RG-115653, semicarbazide of 2-ethyl-3-methoxy-benzoic acid N′-(3,5-dimethyl-benzoyl)-N′-(1,1-dimethyl-2-oxo-ethyl)-hydrazide] | – | 666 | – | – | 6 | – | – | – | – | – | – | – | – |
| CCc1c(OC)cccc1C(=O)NN(C(=O)c1cc(F)c(Cl)cc1Cl)C(C)(C)C [RG-115302] | – | 404 | – | 0.275 µM | 521 | 648 | 0.624 | 2 µM | – | – | – | – | – |
| CCc1c(C(=O)NN(C(=O)c2ccccc2OC)C(C)(C)C)ccc2c1OCCO2 [RG-100690] | 779 | 475 | 1.008 | 0.24 µM | 1094 | 500 | 0.506 | 0.268 µM | – | – | – | – | – |
| Cc1ccc([N+](=O)[O-])c(C(=O)N(NC(=O)c2ccc3c(c2C)OCCO3)C(C)(C)C)c1 [RG-115384] | 337 | – | 0.904 | 0.166 µM | 2753 | 2277 | 0.426 | 0.32 µM | – | – | – | – | – |
| CCc1c(C(=O)NN(C(=O)c2ccccc2OC)C(C)(C)C)ccc2c1OCOC2 [RG-115065] | – | 878 | – | 1.48 µM | – | 880 | – | – | – | – | – | – | – |
| Cc1c(C(=O)NN(C(=O)c2cccc(F)c2)C(C)(C)C)ccc2c1CCCO2 [RG-115278] | 158 | 1225 | 0.893 | 0.257 µM | 1950 | 1050 | 0.823 | 0.63 µM | – | – | – | – | – |
| COc1cc(C)cc(C(=O)N(NC(=O)c2cccc(OC)c2C)C(C)(C)C)c1 [RG-100767] | 825 | 371 | 0.996 | 0.251 µM | 4504 | 682 | 0.920 | 1.06 µM | – | – | – | – | – |
| COc1ccccc1C(=O)N(NC(=O)c1ccc2c(c1)OCCO2)C(C)(C)C [RG-100492] | – | 143 | – | 8.13 µM | – | 1002 | – | – | – | – | – | – | – |
| COc1cc(C(=O)N(NC(=O)c2ccc3c(c2C)CCCO3)C(C)(C)C)cc(OC)c1C [RG-115055] | 573 | 617 | 0.936 | 0.043 µM | 1356 | 1350 | 0.894 | 0.303 µM | – | – | – | – | – |
| CCc1c(C(=O)NN(C(=O)c2cc(F)ccc2F)C(C)(C)C)ccc2c1OCCO2 [RG-115508] | 199 | 680 | 0.787 | 0.537 µM | 310 | 191 | 0.805 | 0.849 µM | – | – | – | – | – |
| CCc1c(C(=O)NN(C(=O)c2cc(Cl)nc(Cl)c2)C(C)(C)C)ccc2c1OCCO2 [RG-115297] | 443 | 604 | 0.872 | 0.066 µM | 1364 | 304 | 0.737 | 1.36 µM | – | – | – | – | – |
| COc1ccc(Cl)cc1C(=O)N(NC(=O)c1ccc2c(c1C)CCCO2)C(C)(C)C [RG-115551] | – | 470 | – | 0.398 µM | – | 290 | – | – | – | – | – | – | – |
| CCc1c(OC)cccc1C(=O)NN(C(=O)c1cc(C)cc(C)c1)C(C)(C)CO[Si](C)(C)C(C)(C)C [RG-115665, 2-ethyl-3-methoxy-benzoic acid N′-[2-(tert-butyl-dimethyl-silanyloxy)-1,1-dimethyl-ethyl]-N′-(3,5-dimethyl-benzoyl)-hydrazide] | – | – | 0.09 | – | – | – | 0 | – | 12.2 µM | 6 | 74 | > 50 µM | 1 |
